# Source: patent US20050014681A1, “Medicinal compositions for nasal absorption” (priority 2001, published 2005)
# What was measured:
# in vivo = conditions: male, SD (Crj: CD), rat, plasma
# Protocol: (§1) An anti-rabbit IgG goat serum was then added, and the mixture was allowed to stand for 1 hour at 4° C. The resulting sample was centrifuged and the radioactivity (gamma-ray) of the precipitate was measured by a gamma counter.
# Male SD rats, aged 7 to 9 weeks and weighing about 250 g (Crj: CD, Charles River Japan Inc.,), were kept in a metal cage with a day/night cycle of 12 hours while maintaining the temperature at 22±5° C. and the humidity at 30 to 70%. The rats were allowed to feed freely on solid feed and tap water and were fasted for 24 hours prior to the test (3 animals per group).
# […] The blood was collected into a tube containing anticoagulant and enzyme inhibitor at 0, 5, 10, 15, 20, 30, 60, and 90 minutes after administration and was centrifuged to obtain plasma. […] For subcutaneous administration, the sample solution for subcutaneous administration (about 15 μg/mL) was subcutaneously administered in the back of the rats using a syringe at a dosage of 1 mL/kg.
# [1] = Absorbability of powder preparation for nasal administration using dogs (RIA); conditions: beagle, dog, in vivo, 50 ug/kg
# Protocol: as §1
# As a control, one additive-free sample of the composition for nasal administration was prepared.
# [2] = Absorbability of powder preparation for nasal administration using cynomolgus monkeys, Test-1 (RIA); conditions: cynomolgus monkey, in vivo, sc, 13 ug/kg
# Protocol: as §1
# Each additive was added to the pharmaceutical composition in amounts of 0.5%, 1.0%, 10% and 50% with respect to the total weight of the preparation.
# The bioavailability was determined by comparing the AUC after nasal administration with the AUC after subcutaneous administration.
# blood glucose level = experiment: Blood glucose level decreasing effect of nasally administered incretin hormones in glucose-loaded rats; format: in vivo; conditions: nasal powder about 100 μg polypeptide, 15 min after dosing, 10 min after 0.5 g/kg i.v. glucose, control 196
# Protocol: As for the composition containing incretin hormones, the blood glucose level fell as compared with the control group. Moreover, also the incretin hormones, the blood glucose level fell when composition containing 5% corn starch is added compared with when 5% corn starch is not added.
# [3] = background statement; cited from earlier work
compound,measurement,setting,value
"CC[C@H](C)[C@H](NC(=O)[C@H](Cc1ccccc1)NC(=O)[C@H](CCC(=O)O)NC(=O)[C@H](CCCCN)NC(=O)[C@H](C)NC(=O)[C@H](C)NC(=O)[C@H](CCC(N)=O)NC(=O)CNC(=O)[C@H](CCC(=O)O)NC(=O)[C@H](CC(C)C)NC(=O)[C@H](Cc1ccc(O)cc1)NC(=O)[C@H](CO)NC(=O)[C@H](CO)NC(=O)[C@@H](NC(=O)[C@H](CC(=O)O)NC(=O)[C@H](CO)NC(=O)[C@@H](NC(=O)[C@H](Cc1ccccc1)NC(=O)[C@@H](NC(=O)CNC(=O)[C@H](CCC(=O)O)NC(=O)[C@H](C)NC(=O)[C@@H](N)Cc1c[nH]cn1)[C@@H](C)O)[C@@H](C)O)C(C)C)C(=O)N[C@@H](C)C(=O)N[C@@H](Cc1c[nH]c2ccccc12)C(=O)N[C@@H](CC(C)C)C(=O)N[C@H](C(=O)N[C@@H](CCCCN)C(=O)NCC(=O)N[C@@H](CCCNC(=N)N)C(N)=O)C(C)C [GLP-1(7-36)NH2, GLP-1 (7-36)NH2]",AUC,"in vivo; inhaled or intranasal, 1 ug/kg",2.47 ± 1.44 ng·h/mL
same,Cmax,"in vivo; inhaled or intranasal, 1 ug/kg",4.7 ± 3.28 ng/mL
same,AUC,"in vivo; sc, 15 ug/kg",3.82 ± 0.58 ng·h/mL
same,Cmax,"in vivo; sc, 15 ug/kg",6.68 ± 0.86 ng/mL
same,AUC(0-inf),[1],5.15 ± 5.13 ng·h/mL
same,Cmax,[1],20.4 ± 3.48 ng/mL
same,AUC(0-inf),[2],3.23 ± 0.5 ng·h/mL
same,Cmax,[2],6.37 ± 2.54 ng/mL
Exendin-4,blood glucose level (Mean),blood glucose level; composition: 5% corn starch,151 mg/dL
same,blood glucose level (Mean),blood glucose level; composition: No additive,166 mg/dL
GLP-1 (7-37) [GLP-1(7-37)],blood glucose level (Mean),blood glucose level; composition: 5% corn starch,146 mg/dL
same,blood glucose level (Mean),blood glucose level; composition: No additive,170 mg/dL
"[Lys^26, ε-NH{γ-Glu(N-α-palmitoyl)}]-GLP-1 (7-37)",blood glucose level (Mean),blood glucose level; composition: 5% corn starch,154 mg/dL
same,blood glucose level (Mean),blood glucose level; composition: No additive,184 mg/dL
"[Val^8]-GLP-1 (7-37) (HVEGTFTSDVSSYLEGQAAKEFIAWLVKGRG; Glucagon-like peptide 1(7-37); UniProt P01275 98-128, looked up, variant A8V) [[Val^8]-GLP-1(7-37)]",blood glucose level (Mean),blood glucose level; composition: 5% corn starch,147 mg/dL
same,blood glucose level (Mean),blood glucose level; composition: No additive,168 mg/dL
casein,isoelectric point (pI),[3],about 4.6
